Assay results taken from patent US9605002B2, “5,5-heteroaromatic anti-infective compounds” (priority 2012, dated 2017).
pIC50: −log10 of the molar value. In brackets after ≈: the same amount, converted by molar mass.

Key:
[1] = test system: M. tuberculosis (Mtb) H37Rv; test: Microplate Alamar Blue Assay (MABA), 7H12 media, replicating Mtb; type: cell-based; settings: Mycobacterium tuberculosis, 7H12 media (no glycerol), read-out: 7H12 media: Replicating H37Rv Mtb: MIC 90
[2] = test system: VERO kidney epithelial cells; test: VERO toxicity assessment; settings: Chlorocebus sabaeus, Vero, read-out: VERO: IC50
[3] = test system: M. tuberculosis (Mtb) H37Rv; test: Microplate Alamar Blue Assay (MABA), GAS media, replicating Mtb; type: cell-based, Mycobacterium tuberculosis; settings: Mycobacterium tuberculosis; GAS (glycerol-alanine-salt) media, replicating H37Rv; read-out: GAS media: replicating H37Rv Mtb: MIC 90

Row | Structure (SMILES) | MIC90 [1] [µM] | pIC50 [2] | MIC90 [3] [µM]
1 | Cc1cn2c(C(=O)NCc3ccccc3Cl)c(C)nc2s1 [ND-020001] | < 2 | > 4.49 | < 2
2 | Cc1nc2sc(C(F)(F)F)cn2c1C(=O)NCc1ccc(N(C)C)cc1 [ND-020024] | 2 to 10 (≈ 0.765 to 3.82 µg/mL) | > 4.49 | < 2
3 | Cc1cn2c(C(=O)NCc3cccc(C(F)(F)F)c3)c(C)nc2s1 [ND-020008] | < 2 | > 4.49 | < 2
4 | Cc1nc2sc(Cl)cn2c1C(=O)NCc1ccc(N2CCOCC2)c(F)c1 [ND-020039] | < 2 | > 4.49 | < 2
5 | Cc1nc2sc(C)c(C)n2c1C(=O)NCc1ccc(C(F)(F)F)cc1 [ND-020013] | 10 to 20 (≈ 3.67 to 7.35 µg/mL) | > 4.49 | 2 to 10
6 | CCc1nc2sc(C)cn2c1C(=O)NCc1ccc(N(C)C)cc1 [ND-020026] | < 2 | > 4.49 | < 2
7 | COC(=O)c1c(C)nc2sc(C)c(C)n12 [ND-009744] | < 32 | > 4.49 | < 32
8 | Cc1cn2c(C(=O)NCc3ccc4c(c3)OCC4)c(C)nc2s1 [ND-020018] | < 2 | > 4.49 | < 2
9 | Cc1cn2c(C(=O)NCc3ccc4ocnc4c3)c(C)nc2s1 [ND-020049] | < 2 | > 4.49 | < 2
10 | Cc1cn2c(C(=O)NCc3cccc(Oc4ccc(Cl)cc4)c3)c(C)nc2s1 [ND-020058] | < 2 | 4.49 to 4.70 | < 2
11 | Cc1nc2sc(Cl)cn2c1C(=O)Nc1ccc(Oc2ccc(C(F)(F)F)cc2)cc1 [ND-020041] | < 2 | > 4.49 | < 2
12 | Cc1nn2c(C(=O)OCc3ccccc3)c(C)nc2s1 [ND-010475] | 10 to 20 (≈ 2.87 to 5.75 µg/mL) | > 4.49 | < 2
13 | Cc1cn2c(C(=O)NCc3ccc(N4CC(C)OC(C)C4)cc3)c(C)nc2s1 (stereo not drawn) [ND-020074] | < 2 | 4.49 to 4.70 | < 2
14 | Cc1cn2c(C(=O)NCc3cccc(Cl)c3)c(C(F)(F)F)nc2s1 [ND-020014] | 2 to 10 (≈ 0.748 to 3.74 µg/mL) | > 4.49 | < 2
15 | Cc1cn2c(C(=O)NCc3ccccc3)c(C)nc2s1 [ND-009749] | < 2 | > 4.49 | < 2
16 | COc1cccc(CNC(=O)c2c(C)nc3sc(C)cn23)c1 [ND-009763] | < 2 | > 4.49 | < 2
17 | CCc1nc2sc(C)cn2c1C(=O)NCc1ccc2ccn(C)c2c1 [ND-020078] | < 2 | > 4.49 | < 2
18 | Cc1cn2c(C(=O)NCc3cccc(N(C)C)c3)c(C)nc2s1 [ND-020019] | < 2 | > 4.49 | < 2
19 | Cc1cn2c(C(=O)NCc3ccc(C(F)(F)F)cc3)c(C)nc2s1 [ND-020009] | < 2 | > 4.49 | < 2
20 | Cc1cn2c(C(=O)NCc3ccc(N4CCOCC4)c(Cl)c3)c(C)nc2s1 [ND-020035] | < 2 | 4.49 to 4.70 | < 2
21 | Cc1nc2sc(Cl)cn2c1C(=O)NCc1ccc2c(c1)OCC2 [ND-020062] | < 2 | > 4.49 | < 2
22 | CCc1nc2sc(C)cn2c1C(=O)OC [ND-009743] | < 32 | > 4.49 | < 32
23 | CCc1nc2sc(C)cn2c1C(=O)NCc1ccc(N2CCC(c3ccc(F)cc3)CC2)cc1 [ND-020046] | < 2 | 4.70 to 5.00 | < 2
24 | Cc1cn2c(C(=O)NCc3cc(F)ccc3F)c(C)nc2s1 [ND-020002] | < 2 | > 4.49 | < 2
25 | CCc1nc2sc(C)cn2c1C(=O)NCc1ccc(N2CCN(c3ccc(F)cc3)CC2)cc1 [ND-020048] | < 2 | 4.70 to 5.00 | < 2

Row | Structure (SMILES) | MIC90 [1] [µM] | pIC50 [2] | MIC90 [3] [µM]
26 | CCc1nc2sc(C)cn2c1C(=O)NCc1ccc2nc(-c3ccc(F)cc3)oc2c1 [ND-020067] | 2 to 10 (≈ 0.869 to 4.34 µg/mL) | 4.49 to 4.70 | < 2
27 | Cc1cn2c(C(=O)NCc3cccc(N4CCOCC4)n3)c(C)nc2s1 [ND-020036] | 2 to 10 (≈ 0.743 to 3.71 µg/mL) | > 4.49 | < 2
28 | Cc1cn2c(C(=O)NCc3cccc(N4CCCC4)c3)c(C)nc2s1 [ND-020073] | < 2 | > 4.49 | < 2
29 | Cc1cn2c(C(=O)NCc3cccc(N4CCN(c5ccc(F)cc5)CC4)c3)c(C)nc2s1 [ND-020047] | 2 to 10 (≈ 0.927 to 4.64 µg/mL) | 4.49 to 4.70 | < 2
30 | Cc1cn2c(C(=O)NCc3cccc(OC(F)(F)F)c3)c(C)nc2s1 [ND-020007] | < 2 | > 4.49 | < 2
31 | Cc1cn2c(C(=O)NCc3ncc(C(F)(F)F)cc3Cl)c(C)nc2s1 [ND-020016] | < 2 | > 4.49 | < 2
32 | Cc1cn2c(C(=O)NCc3ccc(N(C)C)cc3)c(C)nc2s1 [ND-020020] | < 2 | > 4.49 | < 2
33 | Cc1cn2c(C(=O)NCc3cccc(Oc4ccc(F)cc4)c3)c(C)nc2s1 [ND-020059] | < 2 | 4.49 to 4.70 | < 2
34 | Cc1nc2sc(F)cn2c1C(=O)NCc1ccc2c(c1)OCC2 [ND-020061] | < 2 | > 4.49 | < 2
35 | Cc1cn2c(C(=O)Nc3ccc(Oc4ccc(C(F)(F)F)cc4)cc3)c(C)nc2s1 [ND-020040] | < 2 | > 4.49 | < 2
36 | Cc1nc2sc(Cl)cn2c1C(=O)NCc1ccc(C(F)(F)F)cc1 [ND-020012] | < 2 | > 4.49 | < 2
37 | Cc1cn2c(C(=O)Nc3ccc(-c4ccc(C(F)(F)F)cc4)nc3)c(C)nc2s1 [ND-020044] | 2 to 10 (≈ 0.833 to 4.16 µg/mL) | > 4.49 | 2 to 10
38 | Cc1cn2c(C(=O)NCc3ccc(N4CCCC4)cc3)c(C)nc2s1 [ND-020071] | < 2 | 4.49 to 4.70 | < 2
39 | Cc1cn2c(C(=O)NCc3cccc(Oc4ccc(C(F)(F)F)cc4)c3)c(C)nc2s1 [ND-020057] | < 2 | > 4.49 | < 2
40 | Cc1cn2c(C(=O)NCc3cccc(OC(C)C)c3)c(C)nc2s1 [ND-020030] | < 2 | > 4.49 | < 2
41 | CCOc1cccc(CNC(=O)c2c(C)nc3sc(C)cn23)c1 [ND-020029] | < 2 | > 4.49 | < 2
42 | Cc1cn2c(C(=O)NCc3cccc(N4CCC(c5ccc(F)cc5)CC4)c3)c(C)nc2s1 [ND-020045] | 2 to 10 (≈ 0.925 to 4.63 µg/mL) | 4.49 to 4.70 | < 2
43 | Cc1nc2sc(C(F)(F)F)cn2c1C(=O)NCc1ccc2c(c1)OCC2 [ND-020063] | 2 to 10 (≈ 0.763 to 3.81 µg/mL) | > 4.49 | < 2
44 | Cc1nc2sc(Cl)cn2c1C(=O)NCc1ccc(N(C)C)cc1 [ND-020022] | < 2 | > 4.49 | < 2
45 | Cc1nc2sc(C(F)(F)F)cn2c1C(=O)NCc1ccc(Cl)cc1 [ND-020015] | 2 to 10 (≈ 0.748 to 3.74 µg/mL) | > 4.49 | < 2
46 | Cc1cn2c(C(=O)NCc3ccc(F)c(N4CCOCC4)c3)c(C)nc2s1 [ND-020076] | < 2 | > 4.49 | < 2
47 | Cc1nn2c(C(=O)NCc3ccc(Oc4ccc(F)cc4)cc3)c(C)nc2o1 [ND-020051] | 2 to 10 (≈ 0.761 to 3.8 µg/mL) | 4.49 to 4.70 | 2 to 10
48 | Cc1cn2c(C(=O)NCc3cccc(N4CC(C)CC(C)C4)c3)c(C)nc2s1 (stereo not drawn) [ND-020068] | < 2 | > 4.49 | < 2
49 | CCc1nc2sc(C)cn2c1C(=O)NCc1ccc(N2CCOCC2)c(F)c1 [ND-020037] | 2 to 10 (≈ 0.805 to 4.02 µg/mL) | > 4.49 | < 2
50 | CNc1ccc(CNC(=O)c2c(C)nc3sc(C)cn23)cc1 [ND-020021] | < 2 | > 4.49 | < 2
